What is called GI50 is the concentration that inhibits growth by half. In general, TGI refers to the concentration at which net growth stops. Read a low TGI as more potent growth arrest.

Some test systems named below: CAKI-1 renal; COLO 205 colon; HS 578T breast; LOX IMVI melanoma; MCF7 breast; MOLT-4 leukemia; NCI/ADR-RES ovarian; SN12C renal; SNB-19 CNS; TK-10 renal.
Common to all, as to test: DTP human tumour cell line panel, 48 h

Each structure is given as a SMILES string.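 96-well plates; 48 h exposure; 5 concentrations. Endpoints by linear interpolation between flanking doses. Not reached: highest tested concentration assigned. GI50 marks 50% less growth. At the TGI there is no net growth.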

Turning to `Cc1cc(=O)oc2ccc(OC/C=C3\CCC(=O)O3)cc12`, the GI50 was 2720 nM with CAKI-1 renal; 2.17 µM in the experiment on COLO 205 colon; 10.8 µM with HS 578T breast; 4.94 µM in the experiment with LOX IMVI melanoma; 2.36 µM in the experiment with MCF7 breast; 3.05 µM in the experiment on MOLT-4 leukemia. The GI50 with NCI/ADR-RES ovarian is 13700 nM; in the experiment on SN12C renal, 13.5 µM; with SNB-19 CNS, 13 µM; in the experiment on TK-10 renal, 1.61 µM. The TGI with CAKI-1 renal was 14.8 µM; in the experiment with COLO 205 colon, 7.24 µM; with HS 578T breast, 48.9 µM; in the experiment with LOX IMVI melanoma it was 17.2 µM; with MCF7 breast it was 13.3 µM; in the experiment on MOLT-4 leukemia, above 100 µM. Also, the TGI came out at 32.4 µM with NCI/ADR-RES ovarian, 31.4 µM in the experiment on SN12C renal, 30.8 µM in the experiment with SNB-19 CNS and 9.23 µM in the experiment with TK-10 renal.
Consider `COc1cnc2c(c1)C(=O)c1c-2n(CCCNC2=NCCS2)c(=O)c2cc(F)ccc12`, for which the GI50 was 0.201 µM in the experiment with COLO 205 colon; 12 µM in the experiment with HS 578T breast; 0.111 µM in the experiment on LOX IMVI melanoma; 0.033 µM in the experiment with MCF7 breast; 0.0421 µM in the experiment with MOLT-4 leukemia; 340 nM with NCI/ADR-RES ovarian. Further, the GI50 in the experiment on SN12C renal is 0.238 µM; in the experiment with SNB-19 CNS it was 0.15 µM; with TK-10 renal it was 1.12 µM. The TGI in the experiment on COLO 205 colon was 1.91 µM; in the experiment on HS 578T breast, 32.4 µM; in the experiment with LOX IMVI melanoma it was 1.12 µM; in the experiment on MCF7 breast, 1.66 µM; in the experiment with MOLT-4 leukemia it was 0.514 µM; with NCI/ADR-RES ovarian, 11.9 µM. For the same molecule, the values for the TGI in the experiment with SN12C renal, in the experiment on SNB-19 CNS and with TK-10 renal were 12.3 µM, 2.61 µM and 2.52 µM, respectively.
Consider `Cn1cc(/C=C\[N+](=O)[O-])c2ccccc21`, for which the GI50 in the experiment with CAKI-1 renal is 66800 nM; in the experiment on COLO 205 colon it was 42.3 µM; with HS 578T breast, 19.8 µM; with LOX IMVI melanoma it was 18 µM; in the experiment with MCF7 breast, 21 µM; with MOLT-4 leukemia, 23.7 µM. The GI50 in the experiment with NCI/ADR-RES ovarian was above 100000 nM; in the experiment with SN12C renal, above 100 µM; with SNB-19 CNS, 75 µM; with TK-10 renal it was 78.3 µM. The TGI in the experiment on CAKI-1 renal was above 100 µM; with COLO 205 colon, above 100 µM; with HS 578T breast, 50.5 µM; in the experiment on LOX IMVI melanoma it was 36 µM; with MCF7 breast, 80.6 µM; in the experiment on MOLT-4 leukemia it was 58.4 µM. The TGI with NCI/ADR-RES ovarian, in the experiment on SN12C renal, in the experiment with SNB-19 CNS and in the experiment on TK-10 renal was above 100 µM each time.
As for `O=C1Nc2ccc(Cl)cc2/C1=C\c1c(-c2ccc(Cl)cc2)nc2sc(C3CC3)nn12`, the GI50 with CAKI-1 renal was 1430 nM; in the experiment with COLO 205 colon, 5.77 µM; with HS 578T breast, 2.31 µM; in the experiment on LOX IMVI melanoma, 3.15 µM; in the experiment with MCF7 breast, 4.1 µM; in the experiment on MOLT-4 leukemia it was 44.9 µM. The GI50 in the experiment on NCI/ADR-RES ovarian was 2850 nM; in the experiment with SN12C renal it was 3.54 µM; in the experiment on SNB-19 CNS, 3.59 µM; with TK-10 renal, 3.1 µM. Further, the TGI with CAKI-1 renal is 11.1 µM; in the experiment with COLO 205 colon it was 23.9 µM; with HS 578T breast, 6.85 µM; in the experiment with LOX IMVI melanoma, 10.7 µM; in the experiment with MCF7 breast it was 16.6 µM; with MOLT-4 leukemia it was above 100 µM. In addition, the TGI amounted to 10.2 µM in the experiment on NCI/ADR-RES ovarian, 14.2 µM in the experiment on SN12C renal, 16.7 µM in the experiment with SNB-19 CNS and 7.97 µM with TK-10 renal.
`Cc1ccc(CNc2ccc(Br)cc2)cc1`: the TGI in the experiment on CAKI-1 renal is above 100 µM; with COLO 205 colon, 49.7 µM; in the experiment with HS 578T breast, above 100 µM; in the experiment with LOX IMVI melanoma, above 100 µM; in the experiment with MCF7 breast, 61 µM; in the experiment with MOLT-4 leukemia it was above 100 µM. For the same molecule, the TGI with NCI/ADR-RES ovarian, in the experiment with SN12C renal, with SNB-19 CNS and in the experiment with TK-10 renal was above 100 µM throughout.
As to `COc1cccc2c1-c1nc(N)c3c(OC)cccc3c1C2=O`, the TGI in the experiment on CAKI-1 renal was above 100 µM; with COLO 205 colon it was above 100 µM; in the experiment on HS 578T breast, 52.3 µM; with LOX IMVI melanoma, above 100 µM; with MCF7 breast, above 100 µM; in the experiment with MOLT-4 leukemia it was above 100 µM. Besides, the TGI in the experiment with NCI/ADR-RES ovarian, in the experiment with SN12C renal and in the experiment on TK-10 renal was above 100 µM each time.
Take `COc1cccc(/C=C/C(=O)c2ccc3cc(OC)ccc3c2)c1`: the GI50 in the experiment with CAKI-1 renal was 16400 nM; with COLO 205 colon it was 8.13 µM; in the experiment with HS 578T breast, 14.3 µM; in the experiment with LOX IMVI melanoma, 2.92 µM; in the experiment on MCF7 breast, 15.4 µM; with SNB-19 CNS it was 14 µM. Moreover, the GI50 in the experiment on TK-10 renal was 15.6 µM. Besides, the TGI was above 50 µM in the experiment on CAKI-1 renal; 17 µM in the experiment with COLO 205 colon; 48.3 µM with HS 578T breast; 14.5 µM in the experiment with LOX IMVI melanoma; above 50 µM with MCF7 breast; 47.3 µM with SNB-19 CNS. The molecule also had a TGI with TK-10 renal of 46.4 µM.
For the molecule `COc1cc(/C=C/C(=O)c2cccc(-n3cc(-c4cc(OC)c(OC)c(OC)c4)[nH]c3=O)c2)cc(OC)c1OC`, the GI50 is 2890 nM in the experiment with CAKI-1 renal; 1.52 µM in the experiment on COLO 205 colon; above 100 µM in the experiment with HS 578T breast; 1.23 µM with LOX IMVI melanoma; 0.479 µM in the experiment on MCF7 breast; 1.75 µM in the experiment on MOLT-4 leukemia. Also, the values for the GI50 with SN12C renal, with SNB-19 CNS and with TK-10 renal were 2.75 µM, 4.07 µM and 3 µM, respectively. In addition, the TGI in the experiment with CAKI-1 renal was 9.91 µM; in the experiment on COLO 205 colon it was 3.13 µM; with HS 578T breast it was above 100 µM; with LOX IMVI melanoma it was 3.48 µM; in the experiment with MCF7 breast it was 2.44 µM; with MOLT-4 leukemia, 8.08 µM. Besides, the values for the TGI with SN12C renal, with SNB-19 CNS and in the experiment with TK-10 renal were 18.2 µM, 15.8 µM and 6.68 µM, respectively.
